Drawing on BindingDB's records for PubMed 34225181 (University of Electronic Science and Technology of China, 2021), this text covers IC50 for 1 molecule.

Broadly, the IC50 is the concentration at which inhibition is half-maximal.

The assay in a line: Inhibition of L1 (unknown origin) using cefazolin as substrate incubated for 5 mins by Agilent UV8453 spectrometric analysis.

`O=C(NNC(=S)S)c1ccccc1O`: it took 380 nM to reach half-maximal inhibition (IC50).
